Source: patent publication US5516790A, “Synthesis and application of alkyl-substituted dibenzofurans as antitumorigenic agents” (Texas A&M University System Technology Licensing Office, priority 1994, dated 1996)
Like-named read-outs stand apart in the source and are kept apart here.

How the values were obtained:
MDA-MB-231 cell line = details: cited from earlier work
progesterone receptor = details: cited from earlier work
[1] = system: tissue plasminogen activator; details: MCF-7 human breast cancer cells; cited from earlier work
uterus [2] = details: cited from earlier work
estrogen receptor = details: cited from earlier work
female rat uterus [3] = assay type: in vivo, female Sprague/Dawley rats
Experimental: (§1) TCDD or MCDF was co-administered with a second dose of estradiol and the animals were killed 48-hours later. A second group of animals was similarly treated with corn oil, TCDD, MCDF, or TCDD plus MCDF, all administered in corn oil at 10 ml/kg and terminated 72 hours later.
(§2) The animals were terminated by cervical dislocation. Livers were perfused with ice-cold TEDG buffer (10 mM Tris-HCl, 1.5 mM EDTA-4Na, 1 mM dithiothreitol, 10% glycerol (v/v), pH 7.4). Following perfusion in situ, livers were removed, weighed, and homogenized in ice-cold TEDG buffer. Uteri were also removed, weighed, and homogenized in ice-cold buffer. The homogenates were then centrifuged at 800×g […] for 15 minutes and the nuclear pellets were stored at -80° C. The supernatants were further centrifuged at 180,000×g for 1.5 hour. The cytosolic supernatant was also stored at -80° C. Estrogen and progesterone receptor levels were determined within 7 days.

[4] = system: MCF-7 human breast cancer cells; details: cited from earlier work
[5] = system: progesterone receptor (PR); assay type: in vivo, female Sprague/Dawley rats
Experimental: as §1, §2
(§3) Estrogen and progesterone receptor levels were determined by the hydroxyapatite assay as described by Clark et al. (J. Steroid, Biochem., 16, 323-328 (1982)). […] Following the incubations, samples were counted and specific binding was calculated by subtraction of nonspecific from total binding. Assuming one steroid molecule binds to one estrogen/progesterone receptor, the number of moles of receptor can be calculated given the specific activity of the radioligand. […] Significant differences were determined by ANOVA.

estrogen receptor (ER) [6] = assay type: in vivo, female Sprague/Dawley rats
Experimental: as §1, §2, §3

34-kDa protein = details: Biegel and Safe, 1990; cited from earlier work
uterus [7] = assay: Uterine wet weight / uterotrophic effects (literature, summary); assay type: in vivo, rat; details: rats, in comparison to control
estrogen receptor (ER) [8] = assay: Uterine estrogen receptor levels, hydroxyapatite assay (Example 8); assay type: in vivo, female Sprague-Dawley rats; details: run A
AHH and EROD induction = assay: TCDD antagonism / Ah receptor agonist activity (AHH and EROD induction)
uterus [9] = details: cited from earlier work; remark: listed apart in the source
160-kDa protein = details: Biegel and Safe, 1990; cited from earlier work
[10] = system: progesterone receptor (PR); assay: Uterine progesterone receptor levels, hydroxyapatite assay (Example 8); assay type: in vivo, female Sprague-Dawley rats; details: run A
female rat uterus [11] = assay: Antiestrogenic effect on uterine wet weight, immature female Sprague-Dawley rats (Example 8); assay type: in vivo; details: run A
Toxicity = details: in vivo
[12] = Table 11, compound alone: TCDD 0.256 or MCDF 100 μmol/kg, or estradiol
[13] = 150 μmol/kg + E-2 (2 × 10 μg/rat)
[14] = compound alone, 150 μmol/kg (17β-estradiol: 2 × 10 μg/rat)

## Clc1cc2c(cc1Cl)Oc1cc(Cl)c(Cl)cc1O2 [TCDD, 2,3,7,8-tetrachloridibenzo-p-dioxin]
MDA-MB-231 cell line; TCDD plus 17β-estradiol
  secretion of the 34-, 52- and 160-kDa proteins: did not affect
MDA-MB-231 cell line; compound alone
  secretion of the 34-, 52- and 160-kDa proteins: did not affect
Progesterone receptor; female rat
  constitutive and 17β-estradiol induced uterine and hepatic progesterone receptor levels: decreased
[1]
  estrogen mediated excretion of tissue plasminogen activator activity: suppressed
Uterus [2]; TCDD with 17β-estradiol
  estrogenic effects of 17β-estradiol on uterine weights: partially blocked
Uterus [2]; female Long Evans rats
  uterine weights: decreased
Estrogen receptor
  binding to the estrogen receptor: does not bind
Female rat uterus [3]; compound alone: TCDD 0.256 or MCDF 100 μmol/kg, or estradiol
  Uterine Wet Weight: 0.086 ± 0.011 % body wt
Female rat uterus [3]; cotreatment with E-2
  Uterine Wet Weight: 0.245 ± 0.026 % body wt
[4]; TCDD
  17β-estradiol-induced growth of MCF-7 human breast cancer cells: inhibits
[5]; TCDD 0.256 μmol/kg
  Hepatic PRc: 38.3 ± 3.9 fmol/mg protein
  Hepatic PRn: 5.9 ± 1.1 fmol/mg protein
  Uterine PRc: 82 ± 30.2 fmol/mg protein
  Uterine PRn: 190 ± 14.2 fmol/mg protein
[5]; [12]
  Hepatic PRc: 61.9 ± 7.3 fmol/mg protein
  Hepatic PRn: 5.9 ± 0.4 fmol/mg protein
  Uterine PRc: 898.0 ± 49.2 fmol/mg protein
  Uterine PRn: 180 ± 9.9 fmol/mg protein
[5]; Table 11, cotreatment with E-2
  Hepatic PRc: 110.3 ± 8.3 fmol/mg protein
  Hepatic PRn: 6.8 ± 1.3 fmol/mg protein
  Uterine PRc: 811.3 ± 27.1 fmol/mg protein
  Uterine PRn: 511 ± 19.3 fmol/mg protein
Estrogen receptor (ER) [6]; TCDD 0.256 μmol/kg
  Hepatic ERc: 1.7 ± 0.3 fmol/mg protein
  Hepatic ERn: 2.3 ± 0.6 fmol/mg protein
  Uterine ERc: 92.1 ± 8.2 fmol/mg protein
  Uterine ERn: 10.6 ± 0.6 fmol/mg protein
Estrogen receptor (ER) [6]; [12]
  Hepatic ERc: 2.2 ± 0.8 fmol/mg protein
  Hepatic ERn: 2.4 ± 0.4 fmol/mg protein
  Uterine ERc: 57.8 ± 6.3 fmol/mg protein
  Uterine ERn: 11.7 ± 0.8 fmol/mg protein
Estrogen receptor (ER) [6]; Table 11, cotreatment with E-2
  Hepatic ERc: 6.8 ± 1.0 fmol/mg protein
  Hepatic ERn: 4.0 ± 0.8 fmol/mg protein
  Uterine ERc: 82.8 ± 5.4 fmol/mg protein
  Uterine ERn: 17.4 ± 1.0 fmol/mg protein

## Cc1cc(Cl)cc2c1oc1cc(Cl)cc(Cl)c12 [MCDF, 6-methyl 1,3,8-trichlorodibenzofuran]
34-kDa protein
  17β-estradiol-induced secretion of the 34-kDa protein: inhibits
Progesterone receptor; rat, in vivo
  upregulation of uterine nuclear and cytosolic progesterone receptor levels by 17β-estradiol: inhibits
  uterine and hepatic cytosolic and nuclear progesterone receptor levels: dose response decrease
Uterus [7]
  uterine wet weights: decreases
Estrogen receptor (ER) [8]; [13]
  Estrogen Receptor Levels, Cytosolic: 78.9 ± 79.1 fmol/mg protein
  Estrogen Receptor Levels, Nuclear: 43.3 ± 73.4 fmol/mg protein
Estrogen receptor (ER) [8]; [14]
  Estrogen Receptor Levels, Cytosolic: 55.1 ± 0.9 fmol/mg protein
  Estrogen Receptor Levels, Nuclear: 49.3 ± 10.2 fmol/mg protein
AHH and EROD induction
  agonist for Ah receptor mediated response: poor agonist
Uterus [9]
  17β-estradiol-induced increases in rat uterine wet weight: active as an antiestrogen
Uterus [9]; rat, in vivo
  uterotrophic effects of 17β-estradiol: inhibits
160-kDa protein
  17β-estradiol-induced secretion of the 160-kDa protein: inhibits
Female rat uterus [3]; MCDF alone
  uterine wet weights compared to corn oil treated animals: significantly decreased
Female rat uterus [3]; co-treated animals
  estradiol induced increase in uterine wet weight: partially inhibited
Female rat uterus [3]; cotreatment with E-2
  Uterine Wet Weight: 0.255 ± 0.031 % body wt
Female rat uterus [3]; rat, in vivo
  Uterine Wet Weight: 0.090 ± 0.113 % body wt
[4]; Biegel, 1990
  17β-estradiol-induced growth of MCF-7 cells: inhibits
[5]; MCDF 10 μmol/kg
  Hepatic PRc: 74.3 ± 8.1 fmol/mg protein
  Hepatic PRn: 8.9 ± 1.5 fmol/mg protein
  Uterine PRc: 980 ± 34.6 fmol/mg protein
  Uterine PRn: 390 ± 31.6 fmol/mg protein
[5]; MCDF 50 μmol/kg
  Hepatic PRc: 66.0 ± 7.1 fmol/mg protein
  Hepatic PRn: 7.6 ± 1.0 fmol/mg protein
  Uterine PRc: 886 ± 20.1 fmol/mg protein
  Uterine PRn: 290 ± 30.2 fmol/mg protein
[5]; MCDF 100 μmol/kg
  Hepatic PRc: 40.2 ± 3.2 fmol/mg protein
  Hepatic PRn: 6.8 ± 1.0 fmol/mg protein
  Uterine PRc: 811 ± 26.4 fmol/mg protein
  Uterine PRn: 240 ± 26.1 fmol/mg protein
[5]; MCDF 50 and 100 μmol/kg
  constitutive uterine hepatic progesterone receptor levels: dose dependent decrease
[5]; Table 11, cotreatment with E-2
  Hepatic PRc: 108.9 ± 11.1 fmol/mg protein
  Hepatic PRn: 6.4 ± 1.0 fmol/mg protein
  Uterine PRc: 941.2 ± 45.1 fmol/mg protein
  Uterine PRn: 602 ± 11.4 fmol/mg protein
[5]; rat, in vivo
  Hepatic PRc: 60.6 ± 8.4 fmol/mg protein
  Hepatic PRn: 5.1 ± 1.0 fmol/mg protein
  Uterine PRc: 805.3 ± 29.0 fmol/mg protein
  Uterine PRn: 205 ± 10.6 fmol/mg protein
  uterine and hepatic estrogen receptors and progesterone receptor levels, of corresponding levels with 17β-estradiol alone (3rd of four values): 36%
  uterine and hepatic estrogen receptors and progesterone receptor levels, of corresponding levels with 17β-estradiol alone (4th of four values): 75%
Estrogen receptor (ER) [6]; MCDF 10 μmol/kg
  Hepatic ERc: 6.6 ± 0.5 fmol/mg protein
  Hepatic ERn: 6.1 ± 1.0 fmol/mg protein
  Uterine ERc: 137.7 ± 11.6 fmol/mg protein
  Uterine ERn: 15.8 ± 1.9 fmol/mg protein
Estrogen receptor (ER) [6]; MCDF 50 μmol/kg
  Hepatic ERc: 4.6 ± 0.8 fmol/mg protein
  Hepatic ERn: 3.5 ± 0.6 fmol/mg protein
  Uterine ERc: 110.3 ± 6.6 fmol/mg protein
  Uterine ERn: 13.2 ± 2.1 fmol/mg protein
Estrogen receptor (ER) [6]; MCDF 100 μmol/kg
  Hepatic ERc: 3.1 ± 0.3 fmol/mg protein
  Hepatic ERn: 3.1 ± 0.7 fmol/mg protein
  Uterine ERc: 90.2 ± 11.2 fmol/mg protein
  Uterine ERn: 11.5 ± 1.0 fmol/mg protein
Estrogen receptor (ER) [6]; MCDF 50 and 100 μmol/kg
  constitutive uterine hepatic estrogen receptors: dose dependent decrease
Estrogen receptor (ER) [6]; Table 11, cotreatment with E-2
  Hepatic ERc: 8.1 ± 1.2 fmol/mg protein
  Hepatic ERn: 3.6 ± 0.9 fmol/mg protein
  Uterine ERc: 93.5 ± 4.0 fmol/mg protein
  Uterine ERn: 18.5 ± 1.2 fmol/mg protein
Estrogen receptor (ER) [6]; rat, in vivo
  Hepatic ERc: 3.7 ± 1.1
  Hepatic ERn: 3.1 ± 0.2
  Uterine ERc: 67.8 ± 2.5
  Uterine ERn: 13.0 ± 1.1
  uterine and hepatic estrogen receptors and progesterone receptor levels, of corresponding levels with 17β-estradiol alone (1st of four values): 43%
  uterine and hepatic estrogen receptors and progesterone receptor levels, of corresponding levels with 17β-estradiol alone (2nd of four values): 59%
[10]; [13]
  Progesterone Receptor Levels, Cytosolic: 1203 ± 110 fmol/mg protein
  Progesterone Receptor Levels, Nuclear: 435 ± 91 fmol/mg protein
[10]; [14]
  Progesterone Receptor Levels, Cytosolic: 915 ± 63 fmol/mg protein
  Progesterone Receptor Levels, Nuclear: 312 ± 50 fmol/mg protein
Female rat uterus [11]; [13]
  Uterine Wet Weight: 0.194 ± 0.023 % body wt
Female rat uterus [11]; [14]
  Uterine Wet Weight: 0.104 ± 0.004 % body wt
Toxicity
  toxicity: low toxicity
  toxicity of amounts giving antiestrogenic effects: nontoxic
